Residue numbers refer to the chain shown, from its start. Counter-ions that a name gives are not always drawn.
Key:
[1] = target: T1, mXkr8 (mXkr8-GFP; mXkr8–BSG complex) (Mus musculus, UniProt Q8C0T0); experiment: flow cytometry of NBD-SM internalization (BSA back-extraction) in Ba/F3 transformants; type: cell-based; conditions: 0.5 µM NBD-SM, 4 °C or 20 °C, labelled compound; lipid scrambling outer to inner leaflet
T1 construct: gene Xkr8; full length, C-terminal GFP tag, stably expressed in TMEM16F-/- Xkr8-/- mouse Ba/F3 cells; endogenous Basigin (or Neuroplastin) as partner; with Basigin
T1 sequence (Q8C0T0 1-401): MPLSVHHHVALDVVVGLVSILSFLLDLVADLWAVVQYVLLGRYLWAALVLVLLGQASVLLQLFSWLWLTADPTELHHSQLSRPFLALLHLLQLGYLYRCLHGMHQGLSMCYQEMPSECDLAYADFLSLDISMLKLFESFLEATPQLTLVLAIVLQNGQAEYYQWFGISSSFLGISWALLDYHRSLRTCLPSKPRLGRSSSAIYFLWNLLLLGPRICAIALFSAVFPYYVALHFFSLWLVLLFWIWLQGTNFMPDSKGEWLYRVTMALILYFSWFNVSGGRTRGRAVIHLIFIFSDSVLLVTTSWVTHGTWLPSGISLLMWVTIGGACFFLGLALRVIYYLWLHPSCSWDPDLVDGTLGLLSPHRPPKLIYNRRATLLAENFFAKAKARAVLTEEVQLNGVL
T1 sequence (P18572 22-389 partner): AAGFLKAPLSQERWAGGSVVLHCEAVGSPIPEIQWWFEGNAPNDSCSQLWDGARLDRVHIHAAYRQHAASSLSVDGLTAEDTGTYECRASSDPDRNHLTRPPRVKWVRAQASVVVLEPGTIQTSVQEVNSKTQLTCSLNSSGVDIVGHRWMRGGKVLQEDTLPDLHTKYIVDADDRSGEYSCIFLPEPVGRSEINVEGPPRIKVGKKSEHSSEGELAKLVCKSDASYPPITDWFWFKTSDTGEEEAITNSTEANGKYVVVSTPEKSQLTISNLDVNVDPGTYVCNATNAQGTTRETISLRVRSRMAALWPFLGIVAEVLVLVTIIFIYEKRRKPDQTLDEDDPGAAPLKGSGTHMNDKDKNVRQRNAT

[2] = target: T2, mXkr8 (mXkr8-GFP; mXkr8–BSG complex) (Mus musculus, UniProt Q8C0T0, W45A); experiment: as above; type: cell-based; conditions: 0.5 µM NBD-SM, 20 °C, labelled compound; constitutively active mutant
T2 construct: gene Xkr8; full length, C-terminal GFP tag, stably expressed in TMEM16F-/- Xkr8-/- mouse Ba/F3 cells; endogenous Basigin (or Neuroplastin) as partner; with Basigin
T2 sequence (Q8C0T0 1-401 W45A): T1 sequence (Q8C0T0 1-401) with W45A
T2 sequence (P18572 22-389 partner): T1 sequence (P18572 22-389 partner)

## CCCCCCCCCCCCC/C=C/[C@@H](O)[C@H](COP(=O)([O-])OCC[N+](C)(C)C)NC(=O)CCCCCNc1ccc([N+](=O)[O-])c2nonc12 [NBD-SM, (7S)-4-hydroxy-7-[(1R,2E)-1-hydroxy-2-hexadecen-1-yl]-N,N,N-trimethyl-14-[(7-nitro-2,1,3-benzoxadiazol-4-yl)amino]-9-oxo-3,5-dioxa-8-aza-4-phosphatetradecan-1-aminium, 4-oxide inner salt]
[1]
  flow cytometry of NBD-SM internalization (BSA back-extraction) in Ba/F3 transfor: Ba/F3 cell transformants expressing wild-type Xkr8 efficiently incorporated NBD-SM
[2]
  fold internalization vs wild type: ~ 3 fold
